Patent publication US11192859B2, “Quinoline compounds as modulators of RAGE activity and uses thereof” (NEW YORK UNIVERSITY, priority 2016, dated 2021)

Assays:
[1] = target: binding of RAGE tail (ctRAGE) to DIAPH1 (Homo sapiens (Human), UniProt Q15109); assay: Primary screen (high-throughput): blocking of GFP RAGE tail binding to DIAPH1; details: for inhibition at 10 µM: Table 1
Procedure: […] Compounds that reduced binding of RAGE tail (ctRAGE) by at least 50% were then selected and subjected to 4-point dose response (10 uM, 1 uM, 0.1 uM and 0.01 uM).
• Step 1. Add 50 μl anti-DIAPH1 (1:160 dilution in 0.1M NaHCO3 pH 9.6)/well. Incubate overnight at 4° C. Day 2 • Step 2. Use the plate washer to aspirate anti-DIAPH11 and wash plates 4× with PBS 100 μl per well per wash. • Step 3. Add 180 μl 3% BSA in 1×PBS. Incubate for 1.5 hrs at room temperature Step 4. Use the plate washer to aspirate the blocking solution and wash 5× with PBS 300 μl per well. • Step 5. Add 50 μl of DIAPH1 containing lysate (85 μg) and incubate at RT for 3 hours. • Step 6. Aspirate the lysate and wash the plate 5×(100 μl) on the plate washer. • Step 7. Add 25 μl PBS to the wells. • Step 8. Add 0.5 μL compound per well. • Step 9. Add 24.5 μL GFP RAGE tail (125 nM) into each well for 2 hrs at room temperature. • Step 10. Aspirate and wash 5× with PBS (100 μL) on the plate washer. • Step 11. Add 100 μl PBS in each well. • Step 12. Detection: Read on fluorescence plate reader excitation […] and 485 nm emission
Compounds that blocked the binding of RAGE tail to DIAPH1 by 50% or more were subjected to 4 point dose response: 10 μM, 1 μM, 0.1 μM and 0.01 μM.

[2] = test system: Murine vascular smooth muscle cells (SMCs); assay: Smooth muscle cell migration assay (wounding assay), RAGE ligand CML-AGE; format: cell-based; parameters: key to SMC migration Assay, IC50 (nM): ****: No inhibition or bad fit or inhibition out of range; details: CML-AGE 10 μg/ml, 7 h; for IC50: Mus musculus, read-out: SMC migration Assay, IC50
Procedure: FIG. 4 depicts effects of compounds on RAGE ligand-stimulated migration of murine aortic smooth muscle cells (SMCs). Migration of SMCs after incubation with the indicated RAGE inhibitor compounds or the parent molecule (“C12”) quinolone from the Chem-Bridge library was assessed. SMCs were grown to confluence and serum-starved overnight. The following morning, serum free media was removed and compounds were added (1 μM). Immediately following the addition of compounds, the monolayer was wounded using a p200 pipette tip and allowed to incubate for 1.5 h. Following this incubation, compounds were removed and fresh media containing RAGE ligand, CML-AGE (10 μg/ml), was added for 7 h. All images were measured at TO and T7 h and an area ingrowth of effective migrating cells was calculated. Each compound was tested in three independent wells and each well was photographed in 3 separate locations for a total of 9 images used in assessing area ingrowth. Error bars represent SEM. * indicates p<0.05 comparing CML-AGE vs. CML-AGE and compound treatment and # indicates p<0.001 comparing CML-AGE vs. serum free medium (SFM) vehicle. Note that SFM is the vehicle into which the RAGE ligand, CML-AGE, is added for testing the effect of RAGE ligand.
Murine vascular smooth muscle cells (SMCs) were cultured from the aortas of 10-week old male mice using a modification of the procedure of Travo and Barret^17. SMCs were cultured following an explant protocol in accordance with institutional guidelines. Wild-type murine aortic vascular SMCs were isolated and used between passages 8 to 12. Migration in response to the RAGE ligand CML-AGE (CML, 10 μg/ml) or a general effector, not a RAGE ligand, PDGF-BB, 10 ng/ml (R&D systems, Minneapolis, Minn., USA) was assessed with a wounding assay. Cells were grown to confluence in 12-well plates and starved overnight. The following morning, serum free media was removed and compounds were added. Immediately following the addition of compounds, the monolayer was wounded using a p200 pipette tip and the compounds were allowed to incubate for 1.5 h. Following this incubation, all compounds were removed and fresh media containing RAGE ligand or general effector, PDGF-BB, was added for 7 h. Cells were maintained at 37° C. and 5% CO2. Images were obtained at TO and T7. Each image was measured and an area ingrowth of effective migrating cells was calculated. The SMC migration assay data for representative compounds, Compounds 229 and 247, is depicted in FIGS. 5a and 5b, respectively.

ctRAGE = ctRAGE (Homo sapiens (Human), UniProt Q15109); assay: Fluorescence binding assay (native tryptophan fluorescence titration); parameters: key to Fluorescent Binding Assay, Kd (nM): ***: No binding; details: 10 nM ctRAGE, pH 7.0, 5% DMSO; for Kd: read-out: Fluorescent Binding Assay, Kd
Chain of ctRAGE (Q15109 364-404): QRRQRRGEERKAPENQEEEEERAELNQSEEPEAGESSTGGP
Procedure: Native tryptophan fluorescence experiments were conducted using a Horiba Jobin Yvon Fluorolog spectrofluorometer. 1 mM of compound was dissolved in 10 mM phosphate buffer [pH 7.0] and 50% DMSO. ctRAGE was bacterially expressed and purified as described^1. 10 nM ctRAGE solution was individually titrated from 0.1 nM-100 μM with the compounds in 100 μL of 10 mM phosphate buffer [pH 7.0] and 5% DMSO. The excitation and emission wavelengths were 280 nm and 352 nm, respectively. Dissociation constants, Kd, were estimated from the changes in peak fluorescence intensities as a function of the free compound concentration by using Prism 5 software (GraphPad). Data were fit to the equation, (F−F0)/Fmax=[compound]/(Kd+[compound]) where F is the fluorescence intensity at a given compound concentration, F0 is the fluorescence intensity of the blank, and Fmax is the maximum fluorescence intensity.

Chain of binding of RAGE tail (ctRAGE) to DIAPH1 (Q15109 364-404): as above

SMILES | inhibition at 10 µM [1] | SMC migration Assay, IC50 (nM) [2] | Kd (ctRAGE) | also measured
COC(=O)c1cc(-c2ccc(OC)cc2)nc2ccccc12 [Compound 1] | 51% | – | – | –
COC(=O)c1cc(-c2ccccc2)nc2cc(C)ccc12 [Compound 2] | 27% | – | – | –
CCCNC(=O)c1cc(-c2ccc(NC(=O)CC)cc2)nc2ccccc12 [Compound 3] | 36% | – | – | –
CC(=O)Nc1ccc(-c2cc(C(=O)NCCN(C)C)c3ccccc3n2)cc1 [Compound 4, 2-(4-Acetamidophenyl)-N-(2-(dimethylamino)ethyl)quinoline-4-carboxamide] | 45% | – | – | –
CC(=O)Nc1ccc(-c2cc(C(=O)N3CCOCC3)c3ccccc3n2)cc1 [Compound 5, N-(4-(4-(Morpholine-4-carbonyl)quinolin-2-yl)phenyl)acetamide] | 34% | – | – | –
COCCNC(=O)c1cc(-c2ccc(NC(C)=O)cc2)nc2ccccc12 [Compound 6] | 17% | – | – | –
CC(=O)Nc1ccc(-c2cc(C(=O)N3CCCC3)c3ccccc3n2)cc1 [Compound 7] | 29% | – | – | –
COC(=O)c1cc(-c2ccncc2)nc2ccccc12 [Compound 8] | 64% | – | – | –
CC(=O)Nc1ccc(-c2cc(C(=O)O)c3ccccc3n2)cc1 [Compound 9] | 25% | – | – | –
COC(=O)c1cc(-c2ccccc2C)nc2ccccc12 [Compound 10] | 28% | – | – | –
CNC(=O)c1cc(-c2ccc(C)cc2)nc2ccccc12 [Compound 11] | 34% | – | – | –
CC(=O)Nc1ccc(-c2cc(CN3CCOCC3)c3cccc(Cl)c3n2)cc1 [Compound 110, N-(4-(8-Chloro-4-(morpholinomethyl)quinolin-2-yl)phenyl)acetamide] | – | – | – | inhibition at 12.5 µM ([1]; 12.5 μM, Table 2): 20%
CC(=O)Nc1ccc(-c2cc(CNCCN(C)C)c3ccccc3n2)cc1 [Compound 239, N-(4-(4-(((2-(dimethylamino)ethyl)amino)methyl)quinolin-2-yl)phenyl)acetamide] | – | **** | 13 nM | –
CC(=O)Nc1ccc(-c2cc(CN(C)CCN(C)C)c3ccccc3n2)cc1 [Compound 240, N-(4-(4-(((2-(dimethylamino)ethyl)(methyl)amino)methyl)quinolin-2-yl)phenyl)acetamide] | – | **** | – | Fluorescent Binding Assay, Kd (nM) (ctRAGE): ***
CNCCNCc1cc(-c2ccc(NC(C)=O)cc2)nc2ccccc12 [Compound 241, N-(4-(4-(((2-(methylamino)ethyl)amino)methyl)quinolin-2-yl)phenyl)acetamide] | – | **** | 11 nM | –
CNCCN(C)Cc1cc(-c2ccc(NC(C)=O)cc2)nc2ccccc12 [Compound 242, N-(4-(4-((methyl(2-(methylamino)ethyl)amino)methyl)quinolin-2-yl)phenyl)acetamide] | – | – | 8 nM | IC50 [2]: 44 nM
CC(=O)Nc1ccc(-c2cc(CN3CCN(C(=O)OC(C)(C)C)CC3)c3ccccc3n2)cc1 [Compound 244, tert-butyl 4-((2-(4-acetamidophenyl)quinolin-4-yl)methyl)piperazine-1-carboxylate] | – | **** | 54 nM | –
CC(=O)Nc1ccc(-c2cc(CN3CCN(C)CC3)c3ccccc3n2)cc1 [Compound 245, N-(4-(4-((4-methylpiperazin-1-yl)methyl)quinolin-2-yl)phenyl)acetamide] | – | **** | – | Fluorescent Binding Assay, Kd (nM) (ctRAGE): ***
CC(=O)Nc1ccc(-c2cc(CN3CCN(C(C)=O)CC3)c3ccccc3n2)cc1 [Compound 246, N-(4-(4-((4-acetylpiperazin-1-yl)methyl)quinolin-2-yl)phenyl)acetamide] | – | **** | – | Fluorescent Binding Assay, Kd (nM) (ctRAGE): ***

Now from value to compound, other results behind:

inhibition at 10 µM [1] | SMC migration Assay, IC50 (nM) [2] | Kd (ctRAGE) | SMILES | also measured
– | **** | – | CC(=O)Nc1ccc(-c2cc(CCCN3CCOCC3)c3ccccc3n2)cc1 [Compound 243, N-(4-(4-(3-morpholinopropyl)quinolin-2-yl)phenyl)acetamide] | Fluorescent Binding Assay, Kd (nM) (ctRAGE): ***
– | – | 2 nM | CC(=O)Nc1ccc(-c2cc(CN3CCCCC3)c3ccccc3n2)cc1 [Compound 247, N-(4-(4-(piperidin-1-ylmethyl)quinolin-2-yl)phenyl)acetamide] | IC50 [2]: 1 nM
– | **** | – | Cc1nc2ccc(-c3cc(CN4CCOCC4)c4ccccc4n3)cc2[nH]1 [Compound 248, 4-((2-(2-methyl-1H-benzo[d]imidazol-6-yl)quinolin-4-yl)methyl)morpholine] | Fluorescent Binding Assay, Kd (nM) (ctRAGE): ***
– | **** | – | Cc1nc2ccc(-c3cc(CN4CCOCC4)c4ccccc4n3)cc2o1 [Compound 249, 2-methyl-6-(4-(morpholinomethyl)quinolin-2-yl)benzo[d]oxazole] | Fluorescent Binding Assay, Kd (nM) (ctRAGE): ***
– | – | 81 nM | CC(=O)Nc1ccc(-c2cc(CN3CCOCC3)c3ccc(F)cc3n2)cc1F [Compound 250, N-(2-fluoro-4-(7-fluoro-4-(morpholinomethyl)quinolin-2-yl)phenyl)acetamide] | IC50 [2]: 40 nM
– | **** | 168 nM | CC(=O)Nc1ccc(-c2cc(CN3CCOCC3)c3ccc(F)cc3n2)cc1Cl [Compound 251, N-(2-chloro-4-(7-fluoro-4-(morpholinomethyl)quinolin-2-yl)phenyl)acetamide] | –
– | – | 29 nM | CC(=O)Nc1ccc(-c2cc(CN3CCOCC3)c3ccc(F)cc3n2)cc1C#N [Compound 252, N-(2-cyano-4-(7-fluoro-4-(morpholinomethyl)quinolin-2-yl)phenyl)acetamide] | IC50 [2]: 61 nM
– | – | 1300 nM | CC(=O)Nc1ccc(-c2cc(CN3CCOCC3)c3ccc(Cl)cc3n2)cc1F [Compound 253, N-(4-(7-chloro-4-(morpholinomethyl)quinolin-2-yl)-2-fluorophenyl)acetamide] | IC50 [2]: 1200 nM
– | – | 1340 nM | CC(=O)Nc1ccc(-c2cc(CN3CCOCC3)c3ccc(Cl)cc3n2)cc1Cl [Compound 254, N-(2-chloro-4-(7-chloro-4-(morpholinomethyl)quinolin-2-yl)phenyl)acetamide] | IC50 [2]: 2000 nM
– | **** | 137 nM | CC(=O)Nc1ccc(-c2cc(CN3CCOCC3)c3ccc(Cl)cc3n2)cc1C#N [Compound 255, N-(4-(7-chloro-4-(morpholinomethyl)quinolin-2-yl)-2-cyanophenyl)acetamide] | –
– | **** | 5800 nM | COc1ccc2c(CN3CCOCC3)cc(-c3ccc(NC(C)=O)c(F)c3)nc2c1 [Compound 256, N-(2-fluoro-4-(7-methoxy-4-(morpholinomethyl)quinolin-2-yl)phenyl)acetamide] | –
